Measurements: patent publication US20230399319A1, “Acylsulfamide Compound and Pharmaceutical Use Therefor” (Japan Tobacco Inc., priority 2019, published 2023)
Where two headings read alike, the source gives them in different places.

Biological target: NLRP3 inflammasome (Homo sapiens (Human), UniProt Q96P20)
Experiment: Evaluation of NLRP3 inflammasome inhibitory activity (inhibition of IL-1β production in THP1-Null cells, LPS/Nigericin)
Settings: for inhibition at 3 µM: read-out: % inhibition at 3 μM
[1] = inhibition of IL-1β production in THP1-Null cells
[2] = IL-1β production in THP1-Null cells, PMA/LPS primed, Nigericin 7.5 μmol/L

Chain of NLRP3 inflammasome (Q96P20 whole entry): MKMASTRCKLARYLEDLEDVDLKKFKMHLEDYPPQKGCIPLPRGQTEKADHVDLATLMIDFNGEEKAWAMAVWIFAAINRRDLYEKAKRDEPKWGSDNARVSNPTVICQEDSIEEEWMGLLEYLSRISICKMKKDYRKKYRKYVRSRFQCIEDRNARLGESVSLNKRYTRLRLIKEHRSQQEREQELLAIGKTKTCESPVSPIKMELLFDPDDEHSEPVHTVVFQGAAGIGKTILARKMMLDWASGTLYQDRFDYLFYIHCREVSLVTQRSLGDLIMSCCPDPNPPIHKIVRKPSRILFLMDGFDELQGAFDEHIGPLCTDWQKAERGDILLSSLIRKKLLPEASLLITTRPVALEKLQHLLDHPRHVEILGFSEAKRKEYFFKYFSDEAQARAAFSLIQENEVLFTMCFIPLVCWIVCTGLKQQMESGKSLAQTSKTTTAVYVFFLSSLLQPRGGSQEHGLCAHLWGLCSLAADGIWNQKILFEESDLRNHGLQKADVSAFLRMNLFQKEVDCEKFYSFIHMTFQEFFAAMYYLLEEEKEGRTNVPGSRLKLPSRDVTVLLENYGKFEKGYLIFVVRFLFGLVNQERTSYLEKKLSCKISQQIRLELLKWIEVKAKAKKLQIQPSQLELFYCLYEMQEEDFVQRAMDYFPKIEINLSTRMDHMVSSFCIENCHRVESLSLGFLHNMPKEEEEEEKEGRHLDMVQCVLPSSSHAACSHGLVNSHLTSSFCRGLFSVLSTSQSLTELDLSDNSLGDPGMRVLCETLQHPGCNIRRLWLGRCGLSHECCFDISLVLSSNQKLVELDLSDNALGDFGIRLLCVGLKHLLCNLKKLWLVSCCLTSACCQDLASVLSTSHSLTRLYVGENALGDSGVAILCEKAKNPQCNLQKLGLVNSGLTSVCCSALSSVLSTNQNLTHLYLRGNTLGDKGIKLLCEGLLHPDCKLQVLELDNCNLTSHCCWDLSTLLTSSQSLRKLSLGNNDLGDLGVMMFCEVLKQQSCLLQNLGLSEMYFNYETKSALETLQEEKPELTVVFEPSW
Protocol: The NLRP3 inflammasome inhibitory activity of test compounds were evaluated CM the basis of the inhibitory activity of the IL-1β, production in THP1-Null cells (Product Number: thp-null, InvivoGen).
A solution containing a test compound (20 μL/well) was added to test compound-setting wells. […] The supernatant of the culture was cryonically stored (set at −20° C.) until measurement of IL-1β.
The amount of IL-1β in the culture supernatant was quantitated with AlphaLISA IL1 beta kit (Product Number: AL220C, Perkin Elmer). […] Inhibition rates of the test compound-setting wells were calculated on the basis of 100% for the blank-setting wells and 0% for the control-setting wells.

| Structure (SMILES) | IC50 [1] [nM] | IC50 [2] [nM] | further results |
| --- | --- | --- | --- |
| CCCS(=O)(=O)N1CCCN(S(=O)(=O)NC(=O)c2coc(Nc3cc(C)ccc3C)n2)CC1 [Example 2-228] | 28 | – | – |
| COCCCc1cc(C)c(Nc2nc(C(=O)NS(=O)(=O)N(C)C)co2)cc1C(C)C [Example 2-238] | – | – | inhibition at 3 µM: 11% |
| Cc1ccc(C(F)(F)F)cc1Nc1nc(C(=O)NS(=O)(=O)N2CCCN(c3cnccn3)CC2)co1 [Example 2-245] | 73 | – | – |
| CC(C)c1nn2c(c1Nc1nc(C(=O)NS(=O)(=O)N3CCCOCC3)co1)OCCC2C (stereo not shown) [Example 2-248] | – | – | inhibition at 3 µM: 44% |
| Cc1ccc(C(F)(F)F)cc1Nc1nc(C(=O)NS(=O)(=O)N2CCCn3nccc3C2)co1 [Example 2-254] | 64 | – | – |
| CCCS(=O)(=O)N1CCCN(S(=O)(=O)NC(=O)c2coc(Nc3cc(CC)ccc3C)n2)CC1 [Example 2-256] | 15 | – | – |
| CCCS(=O)(=O)N1CCCN(S(=O)(=O)NC(=O)c2coc(Nc3cc(C)ccc3CC)n2)CC1 [Example 2-257] | 22 | – | – |
| CCCS(=O)(=O)N1CCCN(S(=O)(=O)NC(=O)c2coc(Nc3cc(CC)ccc3CC)n2)CC1 [Example 2-258] | 18 | – | – |
| Cc1ccc(C(F)(F)F)cc1Nc1nc(C(=O)NS(=O)(=O)N2CCOC(C(=O)N(C)C)CC2)co1 (stereo not shown) [Example 2-263] | 79 | – | – |
| Cc1ccc(C(F)(F)F)cc1Nc1nc(C(=O)NS(=O)(=O)N2CCOC(C#N)CC2)co1 (stereo not shown) [Example 2-264] | 38 | – | – |
| CCCS(=O)(=O)N1CCCN(S(=O)(=O)NC(=O)c2coc(Nc3ccccc3C)n2)CC1 [Example 2-269] | 350 | – | – |
| CCCS(=O)(=O)N1CCCN(S(=O)(=O)NC(=O)c2coc(Nc3cc(C(F)F)ccc3C)n2)CC1 [Example 2-270] | 9.8 | – | – |
| CCCS(=O)(=O)N1CCCN(S(=O)(=O)NC(=O)c2coc(Nc3cccc4ocnc34)n2)CC1 [Example 2-271] | 940 | – | – |
| Cc1ccc(C(F)(F)F)cc1Nc1nc(C(=O)NS(=O)(=O)N2CCOC(CO)CC2)co1 (stereo not shown) [Example 2-272] | 27 | – | – |
| Cc1ccc(C)c(Nc2nc(C(=O)NS(=O)(=O)N3CCCN(c4ncccn4)CC3)co2)c1 [Example 2-275] | 160 | – | – |
| CCCS(=O)(=O)N1CCCN(S(=O)(=O)NC(=O)c2coc(Nc3cc(C)cc(C)c3C)n2)CC1 [Example 2-288] | 120 | – | – |
| CCCS(=O)(=O)N1CCCN(S(=O)(=O)NC(=O)c2coc(Nc3cc(C)c(C)cc3C)n2)CC1 [Example 2-289] | 46 | – | – |
| CCCS(=O)(=O)N1CCCN(S(=O)(=O)NC(=O)c2coc(Nc3cc(Cl)ccc3C)n2)CC1 [Example 2-291] | 73 | – | – |
| CCCS(=O)(=O)N1CCCN(S(=O)(=O)NC(=O)c2coc(Nc3cc(Br)ccc3C)n2)CC1 [Example 2-292] | 34 | – | – |
| COCC1CCN(S(=O)(=O)NC(=O)c2coc(Nc3cc(C(C)C)ccc3C)n2)CCO1 (stereo not shown) [Example 2-295] | 30 | – | – |
| Cc1cnn(C2CCCN(S(=O)(=O)NC(=O)c3coc(Nc4cc(C(F)(F)F)ccc4C)n3)CC2)c1 (stereo not shown) [Example 2-298] | 67 | – | – |
| COCC1CCN(S(=O)(=O)NC(=O)c2coc(Nc3cc(C)ccc3C)n2)CCO1 (stereo not shown) [Example 2-299] | 190 | – | – |
| CCOCC1CCN(S(=O)(=O)NC(=O)c2coc(Nc3cc(C(F)(F)F)ccc3C)n2)CCO1 (stereo not shown) [Example 2-301] | 11 | – | – |
| CCOCC1CCN(S(=O)(=O)NC(=O)c2coc(Nc3cc(C)ccc3C)n2)CCO1 (stereo not shown) [Example 2-305] | 49 | – | – |
| CCCS(=O)(=O)C1CCCN(S(=O)(=O)NC(=O)c2coc(Nc3cc(C(F)(F)F)ccc3C)n2)CC1 (stereo not shown) [Example 2-306] | – | – | IC50: 9.8 nM |

| Structure (SMILES) | IC50 [1] [nM] | IC50 [2] [nM] | further results |
| --- | --- | --- | --- |
| Cc1ccc(C(C)C)c(Nc2nc(C(=O)NS(=O)(=O)N3CCCOCC3)co2)c1 [Example 2-308] | 82 | – | – |
| COCC1CCN(S(=O)(=O)NC(=O)c2coc(Nc3cc(C)ccc3C(C)C)n2)CCO1 (stereo not shown) [Example 2-309] | 39 | – | – |
| Cc1ccc(C(F)(F)F)cc1Nc1nc(C(=O)NS(=O)(=O)N2CCCC(c3ncccn3)[C@@H](C)C2)co1 (stereo partly shown) [Example 2-312] | 140 | – | – |
| CCCN1CCN(S(=O)(=O)NC(=O)c2coc(Nc3cc(C(F)(F)F)ccc3C)n2)CCC1=O [Example 2-320] | – | – | IC50: 600 nM |
| Cc1ccc(C)c(Nc2nc(C(=O)NS(=O)(=O)N3CCC[C@H]3CN3CCCC3)co2)c1 [Example 2-321] | – | – | inhibition at 3 µM: -11% |
| Cc1ccc(C(F)(F)F)cc1Nc1nc(C(=O)NS(=O)(=O)N2CCOC(COC(F)F)CC2)co1 (stereo not shown) [Example 2-324] | 17 | – | – |
| CCOCC1CCN(S(=O)(=O)NC(=O)c2coc(Nc3cc(C(C)C)ccc3C)n2)CCO1 (stereo not shown) [Example 2-325] | 25 | – | – |
| Cc1ccc(C(C)C)cc1Nc1nc(C(=O)NS(=O)(=O)N2CCOC(COC(F)F)CC2)co1 (stereo not shown) [Example 2-326] | 26 | – | – |
| COCC1CCN(S(=O)(=O)NC(=O)c2coc(Nc3cc(C(F)F)ccc3C)n2)CCO1 (stereo not shown) [Example 2-327] | 29 | – | – |
| Cc1ccc(C(F)F)cc1Nc1nc(C(=O)NS(=O)(=O)N2CCOC(COC(F)F)CC2)co1 (stereo not shown) [Example 2-328] | 30 | – | – |
| CCOCC1CCN(S(=O)(=O)NC(=O)c2coc(Nc3cc(C(F)F)ccc3C)n2)CCO1 (stereo not shown) [Example 2-332] | 22 | – | – |
| CCOCC1CCN(S(=O)(=O)NC(=O)c2coc(Nc3nn(C(C)C)cc3C)n2)CCO1 (stereo not shown) [Example 2-333] | 78 | – | – |
| CCOCC1CCN(S(=O)(=O)NC(=O)c2coc(Nc3nn(C(C)C)cc3C(C)C)n2)CCO1 (stereo not shown) [Example 2-344] | 65 | – | – |
| COCCOCC1CCN(S(=O)(=O)NC(=O)c2coc(Nc3cc(C)ccc3C)n2)CCO1 (stereo not shown) [Example 2-345] | 71 | – | – |
| O=C(NS(=O)(=O)N1CCOCC1)c1cnc(Nc2c3c(cc4c2CCC4)CCC3)o1 [Example 2] | – | < 30 | – |
| Cc1cc(Nc2nc(C(=O)NS(=O)(=O)N3CCOC(COC(C)C)CC3)co2)c(C)cc1F (stereo not shown) [Example 3-003] | – | 21 | – |
| Cc1cc(Nc2nc(C(=O)NS(=O)(=O)N3CCOC(CS(=O)(=O)C(C)C)CC3)co2)c(C)cc1F (stereo not shown) [Example 3-004] | – | 26 | – |
| COCCOC[C@@H]1CCN(S(=O)(=O)NC(=O)c2coc(Nc3cc(C)c(F)cc3C)n2)CCO1 [Example 3-005, (S)-2-((4-fluoro-2,5-dimethylphenyl)amino)-N-((7-((2-methoxyethoxy)methyl)-1,4-oxazepan-4-yl)sulfonyl)oxazole-4-carboxamide] | – | 40 | – |
| O=C(NS(=O)(=O)N1CCCCC1)c1cnc(Nc2c3c(cc4c2CCC4)CCC3)o1 [Example 3] | – | 91 | – |
| O=C(NS(=O)(=O)N1CCCOCC1)c1cnc(Nc2c3c(cc4c2CCC4)CCC3)o1 [Example 4] | – | 81 | – |
| O=C(NS(=O)(=O)N1CCCC1)c1cnc(Nc2c3c(cc4c2CCC4)CCC3)o1 [Example 6] | – | < 30 | – |
| CC(C)NS(=O)(=O)NC(=O)c1cnc(Nc2c3c(cc4c2CCC4)CCC3)o1 [Example 7] | – | 200 | – |
| O=C(NS(=O)(=O)NCc1ccccc1)c1cnc(Nc2c3c(cc4c2CCC4)CCC3)o1 [Example 8] | – | 440 | – |
| O=C(NS(=O)(=O)N1CCOCC12CCC2)c1cnc(Nc2c3c(cc4c2CCC4)CCC3)o1 [Example 9] | – | 210 | – |
| CN(C)S(=O)(=O)NC(=O)c1coc(Nc2c3c(cc4c2CCC4)CCC3)n1 [Example 13] | – | 48 | – |

| Structure (SMILES) | IC50 [1] [nM] | IC50 [2] [nM] | further results |
| --- | --- | --- | --- |
| CN(C)S(=O)(=O)NC(=O)c1cnc(Nc2c3c(c(Cl)c4c2CCC4)CCC3)o1 [Example 14] | – | 97 | – |
| CC(C)N(C)S(=O)(=O)NC(=O)c1cnc(Nc2c3c(cc4c2CCC4)CCC3)o1 [Example 15] | – | < 30 | – |
| COC1CN(S(=O)(=O)NC(=O)c2cnc(Nc3c4c(cc5c3CCC5)CCC4)o2)C1 [Example 17] | – | 830 | – |
| Cn1cc(N(C2CCOCC2)S(=O)(=O)NC(=O)c2cnc(Nc3c4c(cc5c3CCC5)CCC4)o2)cn1 [Example 18] | – | 5400 | – |
| CN(C)S(=O)(=O)NC(=O)c1cnc(Nc2cccc3c2CCC3)o1 [Example 19] | – | 5700 | – |
| CC(C)c1cccc(C(C)C)c1Nc1ncc(C(=O)NS(=O)(=O)N(C)C)o1 [Example 20] | – | – | inhibition at 30 µM (read-out: Inhibition at 30 μM): 48% |
| CC(C)N(C)S(=O)(=O)NC(=O)c1coc(Nc2c3c(cc4c2CCC4)CCC3)n1 [Example 21] | – | 43 | – |
| O=C(NS(=O)(=O)N1CCCC1)c1coc(Nc2c3c(cc4c2CCC4)CCC3)n1 [Example 22] | – | < 30 | – |
| CN(C)S(=O)(=O)NC(=O)c1cnc(Nc2c3c(c(F)c4c2CCC4)CCC3)o1 [Example 26] | – | 130 | – |
| CN(C)S(=O)(=O)NC(=O)c1coc(Nc2c3c(c(F)c4c2CCC4)CCC3)n1 [Example 27] | – | 58 | – |
| CN(C)S(=O)(=O)NC(=O)c1coc(Nc2c3c(c(Cl)c4c2CCC4)CCC3)n1 [Example 28] | – | 120 | – |
| Cc1ccc2c(c1Nc1nc(C(=O)NS(=O)(=O)N3CCCC3)co1)CCC2 [Example 31] | – | 310 | – |
| Cc1ccc2c(c1Nc1nc(C(=O)NS(=O)(=O)N3CCOCC3)co1)CCC2 [Example 32] | – | 150 | – |
| O=C(NS(=O)(=O)N1CCCC1)c1coc(Nc2c3c(c(Cl)c4c2CCC4)CCC3)n1 [Example 34] | – | 48 | – |
| O=C(NS(=O)(=O)N1CCCC1)c1coc(Nc2c3c(c(F)c4c2CCC4)CCC3)n1 [Example 35] | – | < 30 | – |
| CO[C@@H]1CCN(S(=O)(=O)NC(=O)c2coc(Nc3c4c(c(Cl)c5c3CCC5)CCC4)n2)C1 [Example 36] | – | 92 | – |
| O=C(NS(=O)(=O)N1CCOCC1)c1coc(Nc2c3c(c(Cl)c4c2CCC4)CCC3)n1 [Example 37] | – | < 30 | – |
| COCCN(C(C)C)S(=O)(=O)NC(=O)c1coc(Nc2c3c(c(Cl)c4c2CCC4)CCC3)n1 [Example 39] | – | 220 | – |
| O=C(NS(=O)(=O)N1CCS(=O)(=O)CC1)c1coc(Nc2c3c(c(Cl)c4c2CCC4)CCC3)n1 [Example 42] | – | 970 | – |
| CS(=O)(=O)C1CCN(S(=O)(=O)NC(=O)c2coc(Nc3c4c(c(Cl)c5c3CCC5)CCC4)n2)CC1 [Example 43] | – | < 30 | – |
| C[C@H]1CCCN1S(=O)(=O)NC(=O)c1coc(Nc2c3c(c(Cl)c4c2CCC4)CCC3)n1 [Example 44] | – | 230 | – |
| C[C@@H]1CCCN1S(=O)(=O)NC(=O)c1coc(Nc2c3c(c(Cl)c4c2CCC4)CCC3)n1 [Example 45] | – | 200 | – |
| O=C(NS(=O)(=O)N1CCCn2nccc21)c1coc(Nc2c3c(c(Cl)c4c2CCC4)CCC3)n1 [Example 46] | – | 350 | – |
